Test results taken from patent US11802120B2, “Fused cyclic urea derivatives as CRHR2 antagonist” (RaQualia Pharma Inc., priority 2018, dated 2023).

Target: T1, human CRHR2-alpha (Homo sapiens, UniProt Q13324)
T1 sequence (Q13324 1-411): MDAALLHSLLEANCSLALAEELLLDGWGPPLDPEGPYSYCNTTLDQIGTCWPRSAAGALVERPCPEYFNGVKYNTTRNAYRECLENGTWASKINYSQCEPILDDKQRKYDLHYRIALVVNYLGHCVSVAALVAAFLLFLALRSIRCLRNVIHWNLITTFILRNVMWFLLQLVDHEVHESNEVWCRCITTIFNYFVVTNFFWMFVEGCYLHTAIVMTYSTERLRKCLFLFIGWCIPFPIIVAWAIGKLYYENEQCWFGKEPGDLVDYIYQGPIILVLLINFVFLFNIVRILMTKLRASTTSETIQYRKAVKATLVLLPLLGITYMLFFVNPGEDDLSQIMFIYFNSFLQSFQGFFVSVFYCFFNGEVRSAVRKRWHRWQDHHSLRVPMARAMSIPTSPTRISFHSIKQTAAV
Assay: cAMP functional assay for human CRHR2 (LANCE Ultra cAMP, TR-FRET)
Assay type: cell-based
Settings: CHO-K1 cells expressing human CRHR2-alpha, agonist human urocortin2 at EC80, cAMP; read-out: IC50 against CRHR2
In short: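 Antagonism measured in CHO-K1 cells stably expressing the receptor, serum-starved 7 h then cryopreserved. Thawed cells in HBSS buffer with 0.1% BSA, 0.5 mM IBMX, 5 mM Hepes pH 7.4 were preincubated with compound 30 min at 25° C, then stimulated 30 min with EC80 agonist: urocortin2 for CRHR2, CRF for CRHR1.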

SMILES | IC50 [nM]
Cc1ncc(Cl)cc1C(=O)N[C@H]1CC[C@H](Cn2c(=O)n(-c3ccnc4ccccc34)c3ccccc32)CC1 [Example 370, 5-chloro-2-methyl-N-((1r,4r)-4-((2-oxo-3-(quinolin-4-yl)-2,3-dihydro-1H-benzo[d]imi-dazol-1-yl)methyl)cyclohexyl) nicotinamide] | < 300
Cc1ncc(Cl)cc1C(=O)N[C@H]1CC[C@H](Cn2c(=O)n(-c3ccc4cnccc4c3)c3ccccc32)CC1 [Example 371, 5-chloro-N-((1r,4r)-4-((3-(isoquinolin-6-yl)-2-oxo-2,3-dihydro-1H-benzo[d]imidazol-1-yl)methyl)cyclo-hexyl)-2-methylnicotinamide] | < 300
O=C(N[C@H]1CC[C@H](Cn2c(=O)n(-c3ccc(N[C@H]4CCOC4)nc3)c3ccccc32)CC1)c1cc(Cl)cnc1C(F)F [Example 372, 5-chloro-2-(difluoromethyl)-N-((1S,4r)-4-((2-oxo-3-(6-(((S)-tetrahydrofuran-3-yl)amino)pyridin-3-yl)-2,3-dihydro-1H-benzo[d]imidazol-1-yl)methyl)cyclohexyl)nicotinamide] | < 300
N#Cc1ccncc1-n1c(=O)n(C[C@H]2CC[C@H](NC(=O)c3cc(Cl)cnc3C(F)F)CC2)c2ccccc21 [Example 373, 5-chloro-N-((1r,4r)-4-((3-(4-cyanopyridin-3-yl)-2-oxo-2,3-dihydro-1H-benzo[d]imidazol-1-yl)methyl)cyclohexyl)-2-(difluoromethyl)nicotinamide] | < 300
Cn1ncc2c(-n3c(=O)n(C[C@H]4CC[C@H](NC(=O)c5cc(Cl)cnc5C(F)F)CC4)c4ccccc43)cccc21 [Example 374, 5-chloro-2-(difluoromethyl)-N-((1r,4r)-4-((3-(1-methyl-1H-indazol-4-yl)-2-oxo-2,3-dihydro-1H-benzo[d]imidazol-1-yl)methyl)cyclohexyl) nicotinamide] | < 300
N#Cc1cccnc1-n1c(=O)n(C[C@H]2CC[C@H](NC(=O)c3cc(Cl)cnc3C(F)F)CC2)c2ccccc21 [Example 375, 5-chloro-N-((1r,4r)-4-((3-(3-cyanopyridin-2-yl)-2-oxo-2,3-dihydro-1H-benzo[d]imidazol-1-yl)methyl)cyclohexyl)-2-(difluoromethyl)nicotinamide] | < 300
Cc1ccc(-n2c(=O)n(C[C@H]3CC[C@H](NC(=O)c4cc(Cl)cnc4C(F)F)CC3)c3ccccc32)c(C)n1 [Example 376, 5-chloro-2-(difluoromethyl)-N-((1r,4r)-4-((3-(2,6-dimethyl-pyridin-3-yl)-2-oxo-2,3-dihydro-1H-benzo[d]imidazol-1-yl)methyl)cyclohexyl) nicotinamide] | < 300
Cc1cc(-n2c(=O)n(C[C@H]3CC[C@H](NC(=O)c4cc(Cl)cnc4C(F)F)CC3)c3ccccc32)ccn1 [Example 377, 5-chloro-2-(difluoromethyl)-N-((1r,4r)-4-((3-(2-methyl-pyridin-4-yl)-2-oxo-2,3-dihydro-1H-benzo[d]imidazol-1-yl)methyl)cyclohexyl) nicotinamide] | < 300
O=C(N[C@H]1CC[C@H](Cn2c(=O)n(-c3ccc(N[C@@H]4CCOC4)nc3)c3ccccc32)CC1)c1cc(Cl)cnc1C(F)F [Example 379, 5-chloro-2-(difluoromethyl)-N-((1R,4r)-4-((2-oxo-3-(6-(((R)-tetrahydrofuran-3-yl)amino)pyridin-3-yl)-2,3-dihydro-1H-benzo[d]imidazol-1-yl)methyl)cyclohexyl) nicotinamide] | < 300
CNc1ccc(-n2c(=O)n(C[C@H]3CC[C@H](NC(=O)c4cc(Cl)cnc4C(F)F)CC3)c3ccccc32)cn1 [Example 380, 5-chloro-2-(difluoromethyl)-N-((1r,4r)-4-((3-(6-(methyl-amino)pyridin-3-yl)-2-oxo-2,3-dihydro-1H-benzo[d]imidazol-1-yl)methyl)cyclo-hexyl)nicotinamide] | < 300
CN(C)c1ccc(-n2c(=O)n(C[C@H]3CC[C@H](NC(=O)c4cc(Cl)cnc4C(F)F)CC3)c3ccccc32)cn1 [Example 381, 5-chloro-2-(difluoromethyl)-N-((1r,4r)-4-((3-(6-(dimethyl-amino)pyridin-3-yl)-2-oxo-2,3-dihydro-1H-benzo[d]imidazol-1-yl)methyl)cyclo-hexyl)nicotinamide] | < 300
CN(CCO)c1ccc(-n2c(=O)n(C[C@H]3CC[C@H](NC(=O)c4cc(Cl)cnc4C(F)F)CC3)c3ccccc32)cn1 [Example 382, 5-chloro-2-(difluoromethyl)-N-((1r,4r)-4-((3-(6-((2-hydroxyethyl)(methyl)amino)pyridin-3-yl)-2-oxo-2,3-dihydro-1H-benzo[d]imidazol-1-yl)methyl)cyclohexyl)nicotinamide] | < 300
O=C(N[C@H]1CC[C@H](Cn2c(=O)n(-c3ccc(N4CCOCC4)nc3)c3ccccc32)CC1)c1cc(Cl)cnc1C(F)F [Example 383, 5-chloro-2-(difluoromethyl)-N-((1r,4r)-4-((3-(6-morpholino-pyridin-3-yl)-2-oxo-2,3-dihydro-1H-benzo[d]imidazol-1-yl)methyl)cyclohexyl) nicotinamide] | < 300
O=C(N[C@H]1CC[C@H](Cn2c(=O)n(-c3ccc(CO)cc3)c3ccccc32)CC1)c1cc(Cl)cnc1C(F)F [Example 384, 5-chloro-2-(difluoromethyl)-N-((1r,4r)-4-((3-(4-(hydroxy-methyl)phenyl)-2-oxo-2,3-dihydro-1H-benzo[d]imidazol-1-yl)methyl)cyclohexyl) nicotinamide] | < 300
O=C(N[C@H]1CC[C@H](Cn2c(=O)n(-c3ccc4c(c3)nnn4CCO)c3ccccc32)CC1)c1cc(Cl)cnc1C(F)F [Example 385, 5-chloro-2-(difluoromethyl)-N-((1r,4r)-4-((3-(1-(2-hydroxyethyl)-1H-benzo[d][1,2,3]triazol-5-yl)-2-oxo-2,3-dihydro-1H-benzo[d]imidazol-1-yl)methyl)cyclohexyl)nicotinamide] | < 300
Cn1cnc2cc(-n3c(=O)n(C[C@H]4CC[C@H](NC(=O)c5cc(Cl)cnc5C(F)F)CC4)c4ccccc43)ccc21 [Example 386, 5-chloro-2-(difluoromethyl)-N-((1r,4r)-4-((1′-methyl-2-oxo-1′H-[1,5′-bibenzo[d]imidazol]-3(2H)-yl)methyl)cyclohexyl)nicotinamide] | < 300
O=C(N[C@H]1CC[C@H](Cn2c(=O)n(-c3ccc4ncsc4c3)c3ncccc32)CC1)c1cc(Cl)cnc1C(F)F [Example 387, N-((1r,4r)-4-((3-(benzo[d]thiazol-6-yl)-2-oxo-2,3-dihydro-1H-imidazo[4,5-b]pyridin-1-yl)methyl)cyclo-hexyl)-5-chloro-2-(difluoro-methyl)nicotinamide] | < 300
Cc1ccc(-n2c(=O)n(C[C@H]3CC[C@H](NC(=O)c4cc(Cl)cnc4C(F)F)CC3)c3cccnc32)cc1 [Example 389, 5-chloro-2-(difluoromethyl)-N-((1r,4r)-4-((2-oxo-3-(p-tolyl)-2,3-dihydro-1H-imidazo[4,5-b]pyridin-1-yl)methyl)cyclohexyl)nicotinamide] | < 300
CNC(=O)c1ccc(-n2c(=O)n(C[C@H]3CC[C@H](NC(=O)c4cc(Cl)cnc4C(F)F)CC3)c3ccc(OC)cc32)cn1 [Example 390, 5-(3-(((1r,4r)-4-(5-chloro-2-(difluoromethyl)nicotinamido)cyclohexyl)methyl)-6-me-thoxy-2-oxo-2,3-dihydro-1H-benzo[d]imidazol-1-yl)-N-methylpicolinamide] | < 300
CNc1cnc(-n2c(=O)n(C[C@H]3CC[C@H](NC(=O)c4cc(Cl)cnc4C(F)F)CC3)c3ccccc32)cn1 [Example 391, 5-chloro-2-(difluoromethyl)-N-((1r,4r)-4-((3-(5-(methyl-amino)pyrazin-2-yl)-2-oxo-2,3-dihydro-1H-benzo[d]imidazol-1-yl)methyl)cyclohexyl) nicotinamide] | < 300
O=C(N[C@H]1CC[C@H](Cn2c(=O)n(-c3ccc4ncccc4c3)c3ccccc32)CC1)c1cc(Cl)cnc1C(F)F [Example 392, 5-chloro-2-(difluoromethyl)-N-((1r,4r)-4-((2-oxo-3-(quinolin-6-yl)-2,3-dihydro-1H-benzo[d]imidazol-1-yl)methyl)cyclohexyl)nicotinamide] | < 300
O=C(N[C@H]1CC[C@H](Cn2c(=O)n(-c3cnc4ncccc4c3)c3ccccc32)CC1)c1cc(Cl)cnc1C(F)F [Example 393, N-((1r,4r)-4-((3-(1,8-naph-thyridin-3-yl)-2-oxo-2,3-dihydro-1H-benzo[d]imidazol-1-yl)methyl)cyclohexyl)-5-chloro-2-(difluoromethyl) nicotinamide] | < 300
O=C(N[C@H]1CC[C@H](Cn2c(=O)n(-c3ccc4ncncc4c3)c3ccccc32)CC1)c1cc(Cl)cnc1C(F)F [Example 394, 5-chloro-2-(difluoromethyl)-N-((1r,4r)-4-((2-oxo-3-(quinazolin-6-yl)-2,3-dihydro-1H-benzo[d]imidazol-1-yl)methyl)cyclohexyl)nicotinamide] | < 300
Cc1ncc(Cl)cc1C(=O)N[C@H]1CC[C@H](Cn2c(=O)n(-c3ccc4cccnc4c3)c3ccccc32)CC1 [Example 395, 5-chloro-2-methyl-N-((1r,4r)-4-((2-oxo-3-(quinolin-7-yl)-2,3-dihydro-1H-benzo[d]imidazol-1-yl)methyl)cyclo-hexyl)nicotinamide] | < 300
